Experimental data as given in publication PMC7352977 (Cancers, 2020).

How the values were obtained:
[1] = system: MEK/ERK signaling pathway; experiment: Western blot analysis of MEK/ERK signaling, AsPC-1; format: cell-based, human; conditions: AsPC-1, 24 and 48 h
Description: (§1) Cells were plated in a 100 mm cell culture dish and incubated under standard conditions (37 °C under a humidified atmosphere containing 5% CO2) in RPMI-1640 media with 10% fetal bovine serum, 100 μ/mL penicillin, and 100 μ/mL streptomycin (Welgene, Korea). […] After treatment of 24, 48, and 72 h, the cells were lysed using protein extraction solution PRO-PREPTM (iNtRON Biotechnology, Korea) containing a protease inhibitor cocktail for 30 min at 4 °C. After this, the cells were centrifuged at 15,115 x g for 30 min. Protein content in the supernatant was measured with Bradford protein assay using bovine serum albumin (BSA). The protein was separated by 10% SDS-PAGE and transferred onto an immobilon-P membrane (Millipore, USA). Membrane was blocked in ProNA Protein-free 5X general or phospho-block solution (TransLab, Korea) for 1 h at room temperature. The membrane was incubated with primary antibodies against phosphorylated (p)-MEK1/2 (Ser217/221), total (t)-MEK1/2, p-ERK1/2 (Thr202/Tyr204), and t-ERK1/2 (Cell Signaling Technology, USA) at 4 °C overnight, washed with 1X PBS containing 0.1% Tween (PBST) three times, and incubated with anti-IgG secondary antibodies (Santa Cruz Biotechnology, USA) in PBST for 1 h. The transferred protein band was visualized with EzWestLumi plus (ATTO corporation, Japan). Probing for ß-acitn was used as a loading control.

[2] = system: MEK/ERK signaling pathway; experiment: Western blot analysis of MEK/ERK signaling, SW480; format: cell-based; conditions: SW480, 24 and 48 h
Description: as §1

[3] = system: AsPC-1 pancreatic cancer cells (xenograft); experiment: Tumor xenograft model, AsPC-1, nude mice; format: in vivo; conditions: abdominal cavity
Description: Five were deployed per group.
The cells used in the cancer animal model used human-specific pancreatic cancer cell liquor AsPC-1, which was defrosted more than 2 weeks before the animal model was created to obtain stable cell alcohol conditions, and were incubated three times. The growth medium used for cell culture was used by adding 10% fetal bovine serum and 1% penicillin/streptomycin to the RPMI-1640 medium used for AsPC-1 cell lines. On the day of the production of the cancer animal model, AsPC-1 cell line was removed from the cell culture flask by 0.25% Trypsin/EDTA and washed twice with PBS. The cell line was finally harried to HBSS + matrigel (1:1). Since the number of cells to be used in the experiment was 1 × 10^6/head, the finally disheveled cell concentration was 1 × 10^7/mL. It was stored in ice until the test was used. In the case of cell transplantation, 100 μL was transplanted. The separation was performed when the average volume of the tumor had grown to more than 100 mm^3. A random separation of groups was conducted to ensure that the average tumor volume was equal in the day of separation, and the separation of groups was carried out into a total of three groups.

[4] = system: HCT116; experiment: Cell proliferation assay (CCK-8), HCT116; format: cell-based; conditions: HCT116 (colon, KRAS G13D), 72 h, CCK-8, triplicate
Description: (§2) Cells (2 × 10^3/well, 100 μL final volume per well) for HCT116 and NCI-H460, 5 × 10^3 cells/well for SW480 and NCI-H23, and 1 × 10^4 cells/well for AsPC-1 cell lines were used in this assay (Table 4). All cells were allowed to attach for 24 h after plating, and the cells were treated with fresh media the next day. […] After the 72 h incubation, cell counting kit-8 (CCK-8) solution (10 μL/well) was added, and cells were incubated for a further 4 h at 37 °C CO2 incubator. The optical density (OD) of each well at 450 nm was measured by using the Microplate reader (BioTek, USA). Experiments were performed at least three times with representative data presented.

[5] = system: SW480; experiment: Cell proliferation assay (CCK-8), SW480; format: cell-based; conditions: SW480 (colon, KRAS G12V), 72 h, CCK-8, triplicate
Description: as §2

[6] = Solubility in water; format: physicochemical
[7] = system: NCI-H460; experiment: Cell proliferation assay (CCK-8), NCI-H460; format: cell-based; conditions: NCI-H460 (lung, KRAS Q61H), 72 h, CCK-8, triplicate
Description: as §2

[8] = system: KRAS wild-type; experiment: [α-32P] GTP binding assay, KRAS wild-type; format: biochemical, human; conditions: H-REV107 peptide, 30 °C
Description: His-tagged human KRAS wild-type and mutants (G12V, G12D, G12C, G13D, and Q61H) and H-REV107 were transformed into Escherichia coli BL21 (DE3) cells. Each individual colony was inoculated into […] of Luria-Bertani (LB) medium enriched with 10 μg/mL kanamycin, after which the bacteria were grown for 16 h at 37 °C. These cells were then added to 2 L of LB containing antibiotics and grown at 37 °C until the OD600 reached 0.5–0.6. The expression of the proteins was induced by 0.5 mM isopropyl-thio-β-D-1-thiogalactopyranoside (IPTG) at 25 °C, after which the bacterial cells were harvested by centrifugation at 3830 × g for 25 min at 4 °C, then disrupted by sonication in lysis buffer (50 mM HEPES (pH 7.5), 100 mM NaCl, and 2 mM MgCl2). The supernatant was subsequently incubated with Ni-NTA resin (BioRad) for 10 min. After washing, the bound protein was eluted from the beads with elution buffer (50 mM HEPES (pH 7.5), 500 mM NaCl, 2 mM MgCl2, and 400 mM imidazole). The eluted protein was further purified by fast protein liquid chromatography (FPLC) using a Superdex 200 10/300 GL column equilibrated with 50 mM HEPES (pH 7.5), 100 mM NaCl, and 2 mM MgCl2. The purity and identity of the proteins were determined by 15% SDS-PAGE. […]
In addition, the protein complex was incubated with [α-^32P] […] Protein-bound radioactive nucleotide was quantified by liquid scintillation counting.

[9] = system: AsPC-1; experiment: Cell proliferation assay (CCK-8), AsPC-1; format: cell-based, human; conditions: AsPC-1 (pancreas, KRAS G12D), 72 h, CCK-8, triplicate
Description: as §2

[10] = system: A549; experiment: MTT, wild-type KRAS A549 cell line; format: cell-based; conditions: A549, compared with other tumor cell lines
[11] = system: NCI-H23; experiment: Cell proliferation assay (CCK-8), NCI-H23; format: cell-based; conditions: NCI-H23 (lung, KRAS G12C), 72 h, CCK-8, triplicate
Description: as §2

**Q.** For LYDVAGSDKY [H-REV107 peptide], which “expression level of total MEK/ERK protein (in words)” value [1] is on record?
**A.** little effect

**Q.** What about the “phosphorylation levels of MEK/ERK, tendency to decrease (in words)” value [1] of the same sequence?
**A.** little

**Q.** And the “expression level of total MEK/ERK protein (in words)” value [2]?
**A.** little effect

**Q.** And the “phosphorylation levels of MEK/ERK (in words)” value [2]?
**A.** decrease the phosphorylation levels of MEK/ERK

**Q.** What about the “growth rate of tumors, high concentration group (in words)” value ([3]; 200 mg/kg) of the same sequence?
**A.** lowest growth rate

**Q.** What about the “growth rate of tumors compared to Vehicle (in words)” value ([3]; H-REV107 peptide experimental group) of the same sequence?
**A.** lower growth rate of tumors

**Q.** What about the “tumor volume compared to Vehicle (in words)” value ([3]; all doses (50 and 200 mg/kg), day 3 to day 32 after inoculation) of the same sequence?
**A.** decrease

**Q.** What about the “GI50 (in words)” value [4] of the same sequence?
**A.** millimolar ranges

**Q.** What about the GI50 [5] of the same sequence?
**A.** 358 µM

**Q.** And the “solubility in water (in words)” value [6]?
**A.** highly soluble

**Q.** What about the “GI50 (in words)” value [7] of the same sequence?
**A.** millimolar ranges

**Q.** What about the “GTP binding activity to KRAS wild-type, decreased to” value [8] of the same sequence?
**A.** 12%

**Q.** And the GI50 [9]?
**A.** 417 µM

**Q.** What about the “effect on proliferation of wild-type KRAS A549 cell line (in words)” value [10] of the same sequence?
**A.** higher concentration state of H-REV107 peptide had an effect on the proliferation

**Q.** And the “GI50 (in words)” value [11]?
**A.** millimolar ranges
